The results in this text go back to patent US20110001093A1, “FULLERENE DERIVATIVE” (SUMITOMO CHEMICAL COMPANY LIMITED, priority 2007, published 2011).

The data set in a line: Evaluation of solubility in xylene (visual observation). The data set is classed as physicochemical. The following applies: stirred by magnetic stirrer 10 minutes, visually observed.
In the case of `COCCOCCN1CC2C3=c4c5c6c7c(cc8cc9cc%10cc%11cc%12c%13c(c4c4c5c5c7c8c7c9c%10c8c%11c%13c4c8c75)=C(C3)C%12)CC62C1c1ccc(F)cc1` (stereo not shown) [Fullerene derivative C, N-methoxyethoxyethyl-2-(4-fluorophenyl) fulleropyrrolidine], the “Solubility of a 1 wt % xylene solution” value was “Dissolved”. As for `COCCOCCN1CC2C3=c4c5c6c7c(cc8cc9cc%10cc%11cc%12c%13c(c4c4c5c5c7c8c7c9c%10c8c%11c%13c4c8c75)=C(C3)C%12)CC62C1CCc1ccccc1` (stereo not shown) [Fullerene derivative G, N-methoxyethoxyethyl-2-(2-phenylethyl)fulleropyrrolidine], the entry is “Dissolved”; as for `COCCOCCN1CC2C3=c4c5c6c7c(cc8cc9cc%10cc%11cc%12c%13c(c4c4c5c5c7c8c7c9c%10c8c%11c%13c4c8c75)=C(C3)C%12)CC62C1c1ccc(C)cc1` (stereo not shown) [Fullerene derivative D, N-methoxyethoxyethyl-2-(4-methylphenyl)fulleropyrrolidine], “Dissolved”; as for `COCCOCCN1CC2C3=c4c5c6c7c(cc8cc9cc%10cc%11cc%12c%13c(c4c4c5c5c7c8c7c9c%10c8c%11c%13c4c8c75)=C(C3)C%12)CC62C1c1ccccc1` (stereo not shown) [Fullerene derivative E, N-methoxyethoxyethyl-2-phenyl-fulleropyrrolidine], “Dissolved”. As for `COCCOCCN1CC2C3=c4c5c6c7c(cc8cc9cc%10cc%11cc%12c%13c(c4c4c5c5c7c8c7c9c%10c8c%11c%13c4c8c75)=C(C3)C%12)CC62C1c1cccc2ccccc12` (stereo not shown) [Fullerene derivative A, N-methoxyethoxyethyl-2-(1-naphthyl)fulleropyrrolidine], the entry is “Dissolved”. Regarding `COCCOCCN1CC2C3=c4c5c6c7c(cc8cc9cc%10cc%11cc%12c%13c(c4c4c5c5c7c8c7c9c%10c8c%11c%13c4c8c75)=C(C3)C%12)CC62C1c1c(F)c(F)c(F)c(F)c1F` (stereo not shown) [Fullerene derivative B, N-methoxyethoxyethyl-2-(perfluorophenyl)fulleropyrrolidine], the “Solubility of a 1 wt % xylene solution” value is reported as “Dissolved”. The result for `COCCOCCN1CC2C3=c4c5c6c7c(cc8cc9cc%10cc%11cc%12c%13c(c4c4c5c5c7c8c7c9c%10c8c%11c%13c4c8c75)=C(C3)C%12)CC62C1c1ccc(C(F)(F)F)cc1` (stereo not shown) [Fullerene derivative F] reads “Dissolved”.
